{"source": "patent US5378475A", "about": "“Sustained release drug delivery devices” (priority 1991, dated 1995)", "key": {"[1]": {"test": "Device/drug stability after heat treatment (Example 2)", "type": "physicochemical"}, "[2]": {"tested_on": "CMV retinitis", "details": "intravitreal injections of 200 to 400 μg once or twice weekly; cited from earlier work"}, "[3]": {"tested_on": "rabbit eye", "set-up": "species or system New Zealand albino rabbits", "details": "in vivo", "protocol": "New Zealand albino rabbits weighing 1.5 to 2 kg were used in this study. Anesthesia was provided with intramuscular ketamine HCl (40 mg/kg), attopine sulfate (0.1 mg/kg), xylazine HCl (10 mg/kg) and topical proparacaine (0.5%).\nA baseline photopic electroretinogram (ERG) was recorded preoperatively in each rabbit using a corneal contact lens. A Gansfeld stimulus was used to improve standardization of results. After sedation, the rabbits were placed inside a Gansfeld stimulator 20 cm away from the flash unit. Flash (cone and rod response) and flicker (cone response) ERGs were done under light adapted conditions. Graphic measurements were recorded, and the waveform amplitudes and implicit times were calculated.\nThis was done because the pars plana of the New Zealand albino rabbit is poorly developed and it was therefore necessary to implant the devices and take vitreous samples through retina. The ERG was repeated four weeks later immediately prior to insertion of the device. […]\nVitreous samples were periodically removed using a 20 gauge needle on a tuberculin syringe. […] After removal, vitreous samples were stored at -60° C until analyzed by HPLC. […]\nVitreous samples were not collected from the treated eyes. […] In this group, devices were removed from the eyes and the amount of GCV still present determined by HPLC. […]"}, "[4]": {"tested_on": "rabbit retina", "test": "6 mg bolus dose of intravitreal GCV: retinal toxicity in rabbit (Example 3)", "type": "in vivo, New Zealand albino rabbits", "details": "6 mg bolus dose intravitreal, two eyes"}, "[5]": {"tested_on": "CMV retinitis", "details": "intravenous; cited from earlier work"}, "[6]": {"tested_on": "AIDS patients", "details": "human, in vivo; cited from earlier work"}, "[7]": {"details": "J. Ocular Pharmacol. 1988;1062:231; cited from earlier work"}, "[8]": {"details": "J. Ocular Pharmacol. 1988;1062:231; cited from earlier work", "remark": "listed apart in the source"}, "[9]": {"test": "Diffusion/release of 5-FU through PVA membranes", "type": "in vitro ADME", "details": "heat treated PVA membrane", "from_the_text": "Subconjunctival administration of 5-FU as an adjunct to filtration surgery in high risk glaucoma patients is attended by the necessity of multiple subconjunctival injections and the potentially serious complications due to delayed wound healing. Alternative delivery systems have been proposed including liposomes, topical administration, and sustained release polymers. […] Therefore, the rate of release was further decreased by layering EVA within the PVA to create a membrane system that was 6×8 mm in size."}}, "data": [{"smiles": "Nc1nc(O)c2ncn(COC(CO)CO)c2n1", "note": "[GCV, ganciclovir]", "values": [{"measurement": "drug loss or decomposition after heat treatment of ganciclovir pellet", "setting": "[1]; HPLC analysis", "value": "no apparent drug loss or decomposition"}, {"measurement": "near IR after heat treatment", "setting": "[1]; individual component", "value": "no change after heat treatment"}, {"measurement": "effect on CMV retinitis", "setting": "[2]", "value": "temporary remission of CMV retinitis in AIDS patients"}, {"measurement": "observable retinal toxicity", "setting": "[3]", "value": "No observable retinal toxicity"}, {"measurement": "toxicity by indirect ophthalmoscopy", "setting": "[4]", "value": "no evidence of toxicity"}, {"measurement": "bone marrow toxicity", "setting": "[5]", "value": "bone marrow toxicity limits its usefulness"}, {"measurement": "effect on CMV retinitis in AIDS patients", "setting": "[5]", "value": "effective in the treatment of CMV retinitis in AIDS patients"}]}, {"smiles": "Cc1cn([C@H]2C[C@H](N=[N+]=[N-])[C@@H](CO)O2)c(=O)[nH]c1=O", "note": "[zidovudine]", "values": [{"measurement": "effect in AIDS patients", "setting": "[6]", "value": "prolong life and improve the immune function in AIDS patients"}]}, {"smiles": "O=c1[nH]cc(F)c(=O)[nH]1", "note": "[5-FU, 5-fluorouracil]", "values": [{"measurement": "permeability of EVA to 5-FU", "setting": "[7]", "value": "EVA was impermeable to 5-FU"}, {"measurement": "release of 5-FU through PVA", "setting": "[8]", "value": "PVA provided a linear release"}, {"measurement": "effect of heat treating the PVA membrane on 5-FU release rates", "setting": "[9]", "value": "release rates could be markedly decreased"}]}]}
